Tests used:
[1] = Enthalpy of solution by microreaction calorimetry; type: physicochemical; conditions: 25°C
[2] = tested on: Triton induced hyperlipidemia; test: Hypolipidemic activity in Triton induced hyperlipidemia in rats; type: in vivo, male Wistar rats; conditions: Triton treated rats, 30 mg/kg oral gavage 2 h before Triton i.p., plasma 18 h after triton injection
Experimental: The rats were housed under optimal laboratory conditions, maintained on 12 h light and dark cycle and had free access to food (Hindustan Lever Products, Kolkata, India) and water. Animals were acclimatized to laboratory conditions before the tests. All experiments were carried out between 0900 and 1700 h. The experimental protocols were approved by the Institutional Animal Ethics Committee and conducted according to the Indian National Science Academy guidelines for the use and care of animals. Fifty five male Wistar rats were divided into the following 11 groups containing 5 animals in each group: Atrovastain and various solvates were freshly suspended in 0.5% carboxymethyl cellulose and administered by oral gavage. Two hours later, all groups except control animals received intraperitonial injection of Triton (100 mg/kg). Eighteen hours after triton injection, blood was collected from tail vein. Plasma was separated and stored at −20°C for further biochemical analysis. Total cholesterol and triglyceride were analyzed in plasma samples using diagnostic kits as per manufacturer instructions.

[3] = Enthalpy of solution by microreaction calorimetry; type: physicochemical; conditions: for Molar enthalpy of solution in its own solvent, Solvates (ΔsolH^2): each solvate in its own solvent of solvation; for Molar enthalpy of solution in its own solvent, Solvates (ΔsolH^2) / Molar enthalpy of solution, Methanol ΔsolH (methanol): 25°C; for Enthalpy of solvation ΔsolvH: calculated by equation 3 from enthalpies of solution of drug and solvate in the solvent of solvation
Experimental: Molar enthalpy of solution (ΔHsol) was determined in phosphate buffer (pH8) as well as in methanol.
In order to determine the enthalpy associated with the solvation process the enthalpy of solution of a particular solvate was determined in its own solvent.
(3) ΔsolyH=ΔsolH^1−ΔsolH^2
Calorimetric studies were performed on Microreaction calorimeter obtained from Thermal Hazards Technology, UK. Two different solvents, viz, the phosphate buffer (pH 2) and methanol were used to determine the enthalpy of solution and the measurements were performed at 25°C. The size of sample used in this study ranged from 10 to 20 mg and was weighed (Sartorius Model CP225D) into a cylindrical glass tube covered with parafilm on one side. This cylindrical tube was submerged into the ampoule containing the solvent. A plunger with a cap was put from the open end of the tube. The same solvent was put into the reference ampoule. These were put into the sample and reference holes until both rest on the base of the holes. The apparatus was maintained at constant temperature at 25°C (±0.0005°C). The parafilm was shattered mechanically by means of plunger.

[4] = Desolvation of solvates by DSC and TGA; type: physicochemical; conditions: for Desolvation temperature: DSC desolvation endotherm maximum, 10°C/min; for Enthalpy of desolvation, ΔdesolvH calculated from equation 4: calculated from enthalpies of solution, heat capacities and enthalpy of vapourization; for Enthalpy of desolvation per mole of solvent (binding energy): equation 1 from DSC desolvation enthalpy and TGA mass loss
Source text: The desolvation temperatures account for the stability of solvates as the desolvation temperature in all these forms is much higher than the boiling point of the corresponding solvent. The quantitative estimate of the stability of these solvates is established by determining the binding energy for the solvents in all the solvates using equation 1 where the percent mass loss measured over the TG desolvation step of each solvate (ΔmS%) was related to the enthalpy change calculated over the corresponding DSC desolvation endotherm (ΔHSexp).
(1) ΔHS=ΔHSexp×100Δms%×Ms
where ΔHS (J mol^-1) is the enthalpy of desolvation (or binding energy) per mole of the bound solvent, MS is the molecular mass of the solvent.
(4) ΔdesolyH=ΔsolnH^2−ΔsolnH^1−ΔCPTdesoly−25+1/2ΔyapH
. A mass between 2–8 mg was taken into the aluminium pan, covered with lid and sealed. DSC curves were obtained under a nitrogen purge of 50 mL per minute at a heating rate of 10°C per minute with the temperature range from 50-350°C.
Loss of solvent from the samples was characterized by TGA obtained by TA Instruments-Waters LLC, USA. TGA traces were recorded at heating rates of 10°C per minute under a nitrogen purge of 50 ml per minute. Samples with masses between 1–10 mg were analyzed using platinum pan. Mass loss (%) was calculated based on the mass of the original sample.

Row | SMILES | Molar enthalpy of solution, Phosphate buffer (pH8) ΔsolH [1] [kJ mol^-1] | Total Cholesterol [2] [mg/dL] | Triglyceride [2] [mg/dL] | Molar enthalpy of solution in its own solvent, Solvates (ΔsolH^2) [3] [kcal/mol] | Molar enthalpy of solution, Methanol ΔsolH (methanol) [3] [kcal/mol] | Desolvation temperature [4] [°C] | Enthalpy of desolvation, ΔdesolvH calculated from equation 4 [4] [kcal/mol] | Enthalpy of desolvation per mole of solvent (binding energy) [4] [kcal/mol] | Enthalpy of desolvation, ΔdesolvH from DSC [4] [kcal/mol] | Enthalpy of solvation ΔsolvH [3] [kcal/mol] | Desolvation temperature ([4]; listed as Solvate- II) [°C] | Desolvation temperature ([4]; listed as solvate II) | Desolvation temperature ([4]; listed as Solvate-VII) [°C] | Desolvation temperature ([4]; listed as VII) [°C]
1 | CC(C)c1c(C(=O)Nc2ccccc2)c(-c2ccccc2)c(-c2ccc(F)cc2)n1CC[C@@H](O)C[C@@H](O)CC(=O)[O-].CC(C)c1c(C(=O)Nc2ccccc2)c(-c2ccccc2)c(-c2ccc(F)cc2)n1CC[C@@H](O)C[C@@H](O)CC(=O)[O-].CO.[Ca+2] [Solvate V] | 3.85 | 198 | 170 | 0.507 | 0.507 | 70.15 | 6.381 | 13.12 | 6.279 |  |  |  |  | 
2 | C1CCOC1.CC(C)c1c(C(=O)Nc2ccccc2)c(-c2ccccc2)c(-c2ccc(F)cc2)n1CC[C@@H](O)C[C@@H](O)CC(=O)[O-].CC(C)c1c(C(=O)Nc2ccccc2)c(-c2ccccc2)c(-c2ccc(F)cc2)n1CC[C@@H](O)C[C@@H](O)CC(=O)[O-].[Ca+2] [Solvate II] | 14.31 | 201 | 170 | -2.706 | 2.38 |  | 13.66 | 13.19 | 12.3 | -5.299 | 98.89 | 90(±8) °C |  | 
3 | CC(C)c1c(C(=O)Nc2ccccc2)c(-c2ccccc2)c(-c2ccc(F)cc2)n1CC[C@@H](O)C[C@@H](O)CC(=O)[O-].CC(C)c1c(C(=O)Nc2ccccc2)c(-c2ccccc2)c(-c2ccc(F)cc2)n1CC[C@@H](O)C[C@@H](O)CC(=O)[O-].CC(C)c1c(C(=O)Nc2ccccc2)c(-c2ccccc2)c(-c2ccc(F)cc2)n1CC[C@@H](O)C[C@@H](O)CC(=O)[O-].CC(C)c1c(C(=O)Nc2ccccc2)c(-c2ccccc2)c(-c2ccc(F)cc2)n1CC[C@@H](O)C[C@@H](O)CC(=O)[O-].CCO.O.O.[Ca+2].[Ca+2] [Solvate VII] | 16.98 | 202 | 167 | -1.02 | 3.04 |  | 24.847 | 25.48 | 25.01 | -27.902 |  |  | 105.13 | 105.1

Source: article PMC3547732 (Chemistry Central Journal, 2012)
